The numbers were not newly measured in US10273546B2, “Method and composition for diagnosis or treatment of aggressive prostate cancer” (The Trustees of Columbia University in the City of New York, priority 2014, dated 2019), which cites them from elsewhere.

For data set [1] the following is noted: human, in vivo.
The next data set deals with Apo-B. To be noted: animal models.

As to Mipomersen, the toxic effects entry in data set [1] is “relatively mild”. In addition, the “repression of target apo-B expression” value in the data set with Apo-B is “robust and prolonged repression”.
